Read-outs that look alike come from different tables or passages of the source.
Columns and labels:
[1] = system: NF-κB pathway in THP1-Dual STING reporter cells; assay: STING THP1 Reporter Assay, NF-κB pathway (SEAP); format: cell-based, human; settings: 100% = 100 μM cGAMP
Source text: (§1) THP1-Dual™ cells were derived from the human THP-1 monocyte cell line by stable integration of two inducible reporter constructs. To this end, THP1-Dual™ cells allow the simultaneous study of the NF-κB pathway, by monitoring the activity of SEAP, and the IRF pathway by assessing the activity of a secreted luciferase (Lucia). Both reporter proteins are readily measurable in the cell culture supernatant when using QUANTI-Blue™, a SEAP detection reagent, and QUANTI-Luc™, a luciferase detection reagent.
(§2) THP1-Dual™ cells induce the activation of NF-κB in response to STING agonists. They also trigger the IRF pathway upon stimulation with STING agonists, such as cGAMP. Here, the THP-1-Dual cells were used to assess STING binders for function on the cellular level.
(§3) Serial dilutions of compounds in DMSO were added to low volume 384 well plates at 100 nl/well using an ECHO acoustic dispenser (Labcyte, model 550) to achieve final starting concentration of 100 μM in cell suspension. […] One column of the plate was reserved for treatment with cGAMP at 100 μM for 100% activation calculation and one column for no treatment (DMSO only) for baseline activation. Plates were then incubated in 37° C. incubator at 5% CO2 for 20 hours.
(§4) In the SEAP assay, 5 μl of 2× QuantiBlue (Invivogen, cat #Rep-qb2) is added to 384 well black plates seeded with THP1 cells and incubated at 37° C. for 2 hours. Plates were read on the Envision (Perkin Elmer) at 620 nm wavelength (OD620). In the luciferase assay, 5 μl of Quantiluc (Invivogen, Rep-qlc2) is added to white 384 well plates seeded with THP1 cells and read at 5 minutes on the Envision (Perkin Elmer) using a luminescence protocol (RLU). For both cell lines, 100% activation was determined by value (RLU) of THP-1 Dual STING cells stimulated with 100 μM cGAMP (Invivogen, cat #TLRL-NACGA23-5).

[2] = target: T1, STING WT: His-TVMV-S-hSTING(155-341)-H232R (Homo sapiens, UniProt Q86WV6, H232R); assay: STING HTRF Binding Assay, STING WT; settings: 20 nM His-tagged STING cytoplasmic domain, 200 nM fluorescein-labeled cGAMP analog probe, one hour; read-out: HTRF Binding Assays IC50 (μM) STING WT
T1 construct: STING WT: His-TVMV-S-hSTING(155-341)-H232R
T1 sequence (Q86WV6 with tags, fused parts or gaps H232R): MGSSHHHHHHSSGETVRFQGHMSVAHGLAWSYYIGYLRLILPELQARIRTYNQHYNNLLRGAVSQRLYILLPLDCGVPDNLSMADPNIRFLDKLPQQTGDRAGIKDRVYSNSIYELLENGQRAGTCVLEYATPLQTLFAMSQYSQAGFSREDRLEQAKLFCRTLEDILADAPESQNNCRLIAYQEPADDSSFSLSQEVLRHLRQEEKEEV
Experimental: (§5) A time resolved FRET-based competition binding assay was used to assess test article binding to STING WT and STING AQ. His-tagged STING cytoplasmic domain (WT or AQ) at a concentration of 20 nM was incubated with 2.5 nM Tb-labeled anti-His antibody, test compound, and fluorescein-labeled cGAMP analog probe (BioLog cat. no. C195) at a concentration of 200 nM (STING WT) or 40 nM (STING AQ) in PBS containing 0.005% Tween-20 and 0.1% BSA for one hour. Fluorescence at 495 nm and 520 nm was measured using an EnVision microplate reader to quantify FRET between Tb-labeled anti-His antibody and fluorescein-labeled probe. Background was defined as the signal obtained in the absence of STING protein, and background subtracted FRET ratios were normalized to the maximum signal obtained in the absence of test compound. These values were converted to a percent inhibition. Percent inhibition was determined for test compounds at 11 concentrations. The IC50, defined as the concentration of competing test compound needed to reduce specific binding of the probe by 50%, was calculated using the 4 parameter logistic equation to fit the data

[3] = target: T2, STING AQ: His-TVMV-S-hSTING(155-341)-G230A-R293Q (Homo sapiens, UniProt Q86WV6, G230A/H232R/R293Q); assay: STING HTRF Binding Assay, STING AQ; settings: 20 nM His-tagged STING cytoplasmic domain, 40 nM fluorescein-labeled cGAMP analog probe, one hour; read-out: HTRF Binding Assays IC50 (μM) STING AQ
T2 construct: STING AQ: His-TVMV-S-hSTING(155-341)-G230A-R293Q
T2 sequence (Q86WV6 with tags, fused parts or gaps G230A/H232R/R293Q): as the sequence (Q86WV6 with tags, fused parts or gaps H232R) above, with G99A, R162Q counted along it
Experimental: as §5

[4] = system: IRF pathway in THP1-Dual STING reporter cells; assay: STING THP1 Reporter Assay, IRF pathway (secreted Lucia luciferase); format: cell-based, human; settings: 100% = 100 μM cGAMP
Source text: as §1, §2, §3, §4

[5] = Homo sapiens, THP1-Dual, 20 h, THP1-Dual cells, 10% human plasma, 20 hours, SEAP, read-out: THP1 Reporter Assays EC50 (μM) NFkB
[6] = Homo sapiens, THP1-Dual, 20 h, THP1-Dual cells, 10% human plasma, 20 hours, luciferase, read-out: THP1 Reporter Assays EC50 (μM) IRF3
[7] = THP1-Dual cells, 10% human plasma, 20 hours, SEAP, read-out: THP1 Reporter Assays EC50 (μM) NFkB
[8] = THP1-Dual cells, 10% human plasma, 20 hours, luciferase, read-out: THP1 Reporter Assays EC50 (μM) IRF3
[9] = Homo sapiens, THP1-Dual, 20 h, read-out: THP1 Reporter Assays EC50 (μM) NFkB, THP1-Dual cells, 10% human plasma, 20 hours, SEAP
[10] = read-out: THP1 Reporter Assays EC50 (μM) IRF3, THP1-Dual cells, 10% human plasma, 20 hours, luciferase
[11] = read-out: THP1 Reporter Assays EC50 (μM) NFkB, THP1-Dual cells, 10% human plasma, 20 hours, SEAP

| Structure (SMILES) | EC50 [1, 5] [µM] | IC50 [2] [µM] | IC50 [3] [µM] | EC50 [4, 6] [µM] | EC50 [1, 7] [µM] | EC50 [4, 8] [µM] | EC50 [1, 9] [µM] | EC50 ([4]; Homo sapiens, THP1-Dual, 20 h, read-out: THP1 Reporter Assays EC50 (μM) IRF3, THP1-Dual cells, 10% human plasma, 20 hours, luciferase) [µM] | EC50 [4, 10] [µM] | EC50 [1, 11] [µM] |
| --- | --- | --- | --- | --- | --- | --- | --- | --- | --- | --- |
| NC(=O)c1cccc2c1nnn2[C@@H]1O[C@@H]2COP(=O)(S)O[C@H]3[C@@H](F)[C@H](n4cnc5c(N)ncnc54)O[C@@H]3COP(=O)(S)O[C@H]2[C@H]1F (single isomer, unassigned) [Example 4-2] | > 100 | 8.1 | 0.24 | > 100 | – | – | – | – | – | – |
| NC(=O)c1cccc2c1nnn2[C@@H]1O[C@@H]2COP(=O)(S)O[C@H]3[C@@H](F)[C@H](n4cnc5c(N)ncnc54)O[C@@H]3COP(=O)(S)O[C@H]2[C@H]1F (single isomer, unassigned) [Example 4-4] | – | 0.78 | 0.02 | – | 92.4 | 81.1 | – | – | – | – |
| Nc1ncnc2c1ncn2[C@@H]1O[C@@H]2COP(=O)(O)O[C@H]3[C@@H](F)[C@H](n4cnc5c4ncn4ccnc54)O[C@@H]3COP(=O)(O)O[C@H]2[C@H]1F [Example 3] | 24.4 | 0.04 | 0.02 | 5.76 | – | – | – | – | – | – |
| NC(=O)c1cccc2c1nnn2[C@@H]1O[C@@H]2COP(=O)(O)O[C@H]3[C@@H](F)[C@H](n4cnc5c4ncn4ccnc54)O[C@@H]3COP(=O)(O)O[C@H]2[C@H]1F [Example 9] | – | 84.1 | 0.42 | > 100 | – | – | > 100 | – | – | – |
| Nc1ncnc2c1ncn2[C@@H]1O[C@@H]2COP(=O)(O)O[C@H]3[C@@H](O)[C@H](n4cnc5c(=O)n6ccnc6[nH]c54)O[C@@H]3COP(=O)(O)O[C@H]2[C@H]1F [Example 2, (1S,6R,8R,9R,10R,15R,17R,18R)-8-(6-amino-9H-purin-9-yl)-9-fluoro-3,12,18-trihydroxy-17-{9-oxo-3H,4H,9H-imidazo[1,2-a]purin-3-yl}-2,4,7,11,13,16-hexaoxa-3λ^5,12λ^5-diphosphatricyclo[13.3.0.0^6,10]octadecane-3,12-dione] | – | 0.04 | 0.01 | – | – | – | 4.38 | 2.36 | – | – |
| Nc1ncnc2c1ncn2[C@@H]1O[C@@H]2COP(=O)(S)O[C@H]3[C@@H](F)[C@H](n4cnc5c4ncn4ncnc54)O[C@@H]3COP(=O)(S)O[C@H]2[C@H]1F (single isomer, unassigned) [Example 12-3] | – | 0.02 | 0.003 | – | 2.65 | – | – | – | 0.27 | – |
| Nc1ncnc2c1ncn2[C@@H]1O[C@@H]2COP(=O)(S)O[C@H]3[C@@H](O)[C@H](n4cnc5c4ncn4ncnc54)O[C@@H]3COP(=O)(O)O[C@H]2[C@H]1F (single isomer, unassigned) [Example 10-1] | – | 2.5 | 0.04 | – | – | – | – | – | > 100 | > 100 |
| NC(=O)c1cc([C@@H]2O[C@@H]3COP(=O)(S)O[C@H]4[C@@H](F)[C@H](n5cnc6c(N)ncnc65)O[C@@H]4COP(=O)(S)O[C@H]3[C@H]2O)[nH]n1 (single isomer, unassigned) [Example 6-3] | – | > 100 | 16.2 | – | > 100 | > 100 | – | – | – | – |
| Nc1ncnc2c1ncn2[C@@H]1O[C@@H]2COP(=O)(S)O[C@H]3[C@@H](O)[C@H](n4cnc5c(=O)n6ccnc6[nH]c54)O[C@@H]3COP(=O)(S)O[C@H]2[C@H]1F (single isomer, unassigned) [Example 1-2] | – | 0.07 | 0.01 | – | 5.35 | 2.69 | – | – | – | – |
| NC(=O)c1cc([C@@H]2O[C@@H]3COP(=O)(S)O[C@H]4[C@@H](F)[C@H](n5cnc6c(N)ncnc65)O[C@@H]4COP(=O)(S)O[C@H]3[C@H]2O)[nH]n1 (single isomer, unassigned) [Example 6-1] | > 100 | 5.58 | 1.32 | > 100 | – | – | – | – | – | – |
| Nc1ncnc2c1ncn2[C@@H]1O[C@@H]2COP(=O)(S)O[C@H]3[C@@H](F)[C@H](n4cnc5c4ncn4ccnc54)O[C@@H]3COP(=O)(S)O[C@H]2[C@H]1F (single isomer, unassigned) [Example 21-3] | – | 0.02 | 0.01 | – | – | – | – | – | 0.14 | 0.53 |

From patent US11660311B2, “Cyclic dinucleotides as anticancer agents” (priority 2017, dated 2023)
